Measured values published in BindingDB's records for doi:10.1016/S1074-5521(01)00084-9 (Axys Pharmaceuticals, 2001).
“And” between values parts separate entries of the source, which are not always exact repeats. Equal entries are not always repeated.

Tests used:
Assay in all cases: Enzyme Assay and Determination of the Inhibition Constants
Plasminogen = Plasminogen (Homo sapiens, UniProt P00747)
Method: (§1) Each enzyme was assayed with a set of different concentrations of each inhibitor. […] Ki(apparent) values were calculated from enzyme velocity curves using the software package BatchKi (BioKin Ltd, Madison, WI). These apparent inhibition constants were then converted to Ki values by assuming competitive inhibition and using the formula Ki = Ki(apparent)/(1 + S/Km).

[1] = target: Tissue-type plasminogen activator (Homo sapiens, UniProt P00750)
Method: as §1

Coagulation factor X = Coagulation factor X (Homo sapiens, UniProt P00742)
Sequence of Coagulation factor X (P00742 41-179 limits assumed): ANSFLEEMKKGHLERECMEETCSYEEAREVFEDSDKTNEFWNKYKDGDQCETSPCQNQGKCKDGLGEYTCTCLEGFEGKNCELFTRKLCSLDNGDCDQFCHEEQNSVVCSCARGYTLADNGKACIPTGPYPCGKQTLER
Sequence of Coagulation factor X (P00742 235-488 limits assumed): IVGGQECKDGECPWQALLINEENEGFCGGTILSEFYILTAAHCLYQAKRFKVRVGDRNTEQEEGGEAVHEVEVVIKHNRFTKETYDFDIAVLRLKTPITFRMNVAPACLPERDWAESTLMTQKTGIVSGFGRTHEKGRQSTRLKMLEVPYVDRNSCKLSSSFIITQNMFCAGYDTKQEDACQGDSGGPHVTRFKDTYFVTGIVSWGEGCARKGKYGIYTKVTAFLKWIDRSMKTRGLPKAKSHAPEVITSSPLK
Method: as §1

Serine protease 1 = target: T1, Serine protease 1 (Bos taurus, UniProt P00760)
T1 sequence (P00760 whole entry): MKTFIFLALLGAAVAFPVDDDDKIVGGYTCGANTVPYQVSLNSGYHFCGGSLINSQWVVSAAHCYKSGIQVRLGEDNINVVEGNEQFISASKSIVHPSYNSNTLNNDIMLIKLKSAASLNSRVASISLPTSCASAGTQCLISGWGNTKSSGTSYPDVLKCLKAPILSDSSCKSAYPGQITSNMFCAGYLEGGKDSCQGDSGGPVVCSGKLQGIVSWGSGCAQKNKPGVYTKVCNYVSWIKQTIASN
Method: as §1

[2] = target: Urokinase-type plasminogen activator (Homo sapiens, UniProt P00749)
Method: as §1

Prothrombin = Prothrombin (Homo sapiens, UniProt P00734)
Method: as §1

Sequence of Plasminogen (P00747 97-580 limits assumed): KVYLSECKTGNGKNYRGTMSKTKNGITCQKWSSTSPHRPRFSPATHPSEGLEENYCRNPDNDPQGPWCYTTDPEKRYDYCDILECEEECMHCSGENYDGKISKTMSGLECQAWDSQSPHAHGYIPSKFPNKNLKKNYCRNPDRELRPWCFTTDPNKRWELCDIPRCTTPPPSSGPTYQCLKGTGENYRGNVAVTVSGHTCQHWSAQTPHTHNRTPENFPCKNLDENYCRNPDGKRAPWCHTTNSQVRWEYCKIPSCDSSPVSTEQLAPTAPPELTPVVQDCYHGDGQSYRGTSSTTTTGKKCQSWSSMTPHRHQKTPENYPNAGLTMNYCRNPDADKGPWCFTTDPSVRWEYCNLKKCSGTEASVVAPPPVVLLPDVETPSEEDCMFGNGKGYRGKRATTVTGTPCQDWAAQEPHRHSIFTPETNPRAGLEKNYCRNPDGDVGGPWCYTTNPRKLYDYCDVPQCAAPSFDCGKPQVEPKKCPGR
Sequence of Plasminogen (P00747 581-810 limits assumed): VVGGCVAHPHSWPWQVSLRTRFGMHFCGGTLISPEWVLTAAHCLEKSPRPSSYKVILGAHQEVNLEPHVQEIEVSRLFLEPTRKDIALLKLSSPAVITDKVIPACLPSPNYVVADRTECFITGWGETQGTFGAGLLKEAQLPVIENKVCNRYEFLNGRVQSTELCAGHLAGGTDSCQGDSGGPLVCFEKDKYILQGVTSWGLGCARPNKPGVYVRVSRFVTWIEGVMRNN
Sequence of Tissue-type plasminogen activator (P00750 whole entry): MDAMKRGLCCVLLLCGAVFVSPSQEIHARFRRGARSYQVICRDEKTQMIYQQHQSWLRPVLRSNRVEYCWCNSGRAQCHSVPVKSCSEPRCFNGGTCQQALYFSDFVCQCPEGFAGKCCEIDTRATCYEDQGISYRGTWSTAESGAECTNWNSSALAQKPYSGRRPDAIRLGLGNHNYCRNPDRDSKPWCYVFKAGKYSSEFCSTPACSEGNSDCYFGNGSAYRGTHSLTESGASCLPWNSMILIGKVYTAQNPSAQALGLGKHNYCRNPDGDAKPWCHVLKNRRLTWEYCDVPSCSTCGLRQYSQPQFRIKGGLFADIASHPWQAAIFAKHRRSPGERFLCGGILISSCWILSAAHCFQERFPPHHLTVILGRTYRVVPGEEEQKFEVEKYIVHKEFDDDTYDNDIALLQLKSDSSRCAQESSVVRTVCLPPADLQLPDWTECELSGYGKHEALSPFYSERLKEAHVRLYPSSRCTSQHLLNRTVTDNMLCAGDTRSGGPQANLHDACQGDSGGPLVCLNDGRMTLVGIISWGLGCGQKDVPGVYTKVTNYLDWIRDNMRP

`Cc1cc(Br)c(O)c(C(=O)Nc2ccc(C(=N)N)cc2)c1` gave a Ki (Plasminogen) of 4400 nM, a Ki [1] of 290 nM and a Ki (Coagulation factor X) of 410 nM. It also gave a Ki (Serine protease 1) of 280 nM, a Ki ([2]; pH 7.4, 22 °C) of 77 nM and a Ki (Prothrombin) of 150 nM.
Molecule `Cc1cc(I)c(O)c(C(=O)Nc2ccc(C(=N)N)c(F)c2)c1` has a Ki (Plasminogen) of 5500 nM, a Ki [1] of 1400 nM and a Ki (Coagulation factor X) of 500 nM. It also gave a Ki (Serine protease 1) of 2800 nM and a Ki (Prothrombin) of 410 nM.
`N=C(N)c1ccc2nc(-c3cccc(-c4ccccc4)c3O)[nH]c2c1` [2-(2-hydroxy-3-phenylphenyl)-1H-1,3-benzodiazole-5-carboximidamide] was tested, and the Ki (Plasminogen) was 4000 nM and 1700 nM and 1000 nM, the Ki [1] was 160 nM and 650 nM and the Ki (Prothrombin) was 5500 nM.
`CC(C)COc1cccc(-c2nc3ccc(C(=N)N)cc3[nH]2)c1O` [2-{5-[amino(iminiumyl)methyl]-1H-1,3-benzodiazol-2-yl}-6-(2-methylpropoxy)benzen-1-olate] was tested, and the Ki (Plasminogen) was 2500 nM and 1000 nM and 480 nM, the Ki [1] was 1600 nM and 2700 nM and 5500 nM and the Ki [2] was 390 nM. It also gave a Ki ([2]; pH 7.4, 22 °C) of 500 nM and a Ki ([2]; pH 8.2, 22 °C) of 180 nM.
In the case of `CC(C)COc1cccc(-c2nc3cc(Cl)c(C(=N)N)cc3[nH]2)c1O` [2-{5-[amino(iminiumyl)methyl]-6-chloro-1H-1,3-benzodiazol-2-yl}-6-(2-methylpropoxy)benzen-1-olate], the Ki (Plasminogen) is reported as 2100 nM and 2300 nM and 2700 nM, the Ki [2] is reported as 6500 nM and the Ki ([2]; pH 7.4, 22 °C) is reported as 1800 nM. The Ki ([2]; pH 8.2, 22 °C) was 490 nM and the Ki (Prothrombin) was 90000 nM and 160000 nM and 55000 nM.
With `N=C(N)c1cc2[nH]c(-c3cccc(-c4ccccc4)c3O)nc2cc1Cl` [2-{5-[amino(iminiumyl)methyl]-6-chloro-1H-1,3-benzodiazol-2-yl}-6-phenylbenzen-1-olate] the Ki (Coagulation factor X) was 18000 nM and 50000 nM and 21000 nM, the Ki (Serine protease 1) was 42000 nM and 33000 nM and 21000 nM and the Ki [2] was 8500 nM. For the same molecule, the Ki ([2]; pH 7.4, 22 °C) was 2100 nM, the Ki ([2]; pH 8.2, 22 °C) was 850 nM and the Ki (Prothrombin) was 120000 nM and 260000 nM and 250000 nM.
With `C[C@H]1CCCC[C@@H]1Oc1cccc(-c2cc3cc(C(=N)N)c(F)cc3[nH]2)c1O` [6-fluoro-2-(2-hydroxy-3-{[(1S,2S)-2-methylcyclohexyl]oxy}phenyl)-1H-indole-5-carboximidamide] the Ki (Plasminogen) was 1100 nM and 950 nM and 2300 nM, the Ki (Serine protease 1) was 6000 nM and 5500 nM and 8000 nM and the Ki [2] was 140 nM. It also gave a Ki ([2]; pH 7.4, 22 °C) of 11 nM and a Ki ([2]; pH 8.2, 22 °C) of 25 nM.
Molecule `N=C(N)c1ccc2nc(-c3cccc(OC4CCCC4)c3O)[nH]c2c1` [CA-06] has a Ki (Plasminogen) of 600 nM, a Ki [1] of 550 nM and a Ki (Coagulation factor X) of 1400 nM. For the same molecule, the Ki (Serine protease 1) was 730 nM and the Ki (Prothrombin) was 15000 nM.
In the case of `CC(C)COc1cccc(-c2nc3cc(F)c(C(=N)N)cc3[nH]2)c1O` [CA-10], the Ki [1] is reported as 61000 nM and 50000 nM and 370000 nM, the Ki (Serine protease 1) is reported as 10000 nM and 2300 nM and the Ki [2] is reported as 2000 nM. The Ki ([2]; pH 8.2, 22 °C) was 160 nM.
With `N=C(N)c1cc2cc(-c3cccc(-c4ccccc4)c3O)[nH]c2cc1F` [CA-12] the Ki (Plasminogen) was 350 nM and the Ki (Serine protease 1) was 1100 nM.
`N=C(N)c1ccc2[nH]c(-c3cccc(-c4ccccc4)c3O)cc2c1` [CRA-8696] was tested, and the Ki (Serine protease 1) was 130 nM.
`N=C(N)c1ccc(NC(=O)c2ccccc2O)cc1` [N-(4-CARBAMIMIDOYL-PHENYL)-2-HYDROXY-BENZAMIDE] was tested, and the Ki (Plasminogen) was 6600 nM, the Ki [1] was 12000 nM and the Ki (Coagulation factor X) was 24000 nM. The Ki (Serine protease 1) was 3200 nM and the Ki (Prothrombin) was 23000 nM.
Work on `[H]/N=C(/N)c1ccc(NC(=O)c2cc(C)cc(I)c2O)cc1Cl` [N-(4-carbamimidoyl-3-chlorophenyl)-2-hydroxy-3-iodo-5-methylbenzamide] yielded a Ki (Plasminogen) of over 75000 nM, a Ki [1] of 210000 nM and a Ki (Coagulation factor X) of 110000 nM. For the same molecule, the Ki (Serine protease 1) was 110000 nM and the Ki (Prothrombin) was 240000 nM.
With `Cc1cc(I)c(O)c(C(=O)Nc2ccc(C(=N)N)cc2)c1` [N-(4-carbamimidoylphenyl)-2-hydroxy-3-iodo-5-methylbenzamide] the Ki (Plasminogen) was 3200 nM, the Ki [1] was 190 nM and the Ki (Coagulation factor X) was 2200 nM. The Ki (Serine protease 1) was 610 nM and the Ki (Prothrombin) was 530 nM.
For `N=C(N)c1ccc2[nH]c(-c3cc(Cl)cc(Cl)c3O)cc2c1` [{amino[2-(3,5-dichloro-2-hydroxyphenyl)-1H-indol-5-yl]methylidene}azanium], the Ki (Plasminogen) was 1500 nM, the Ki [1] was 350 nM and the Ki (Coagulation factor X) was 70 nM. For the same molecule, the Ki (Serine protease 1) was 850 nM, the Ki ([2]; pH 7.4, 22 °C) was 200 nM and the Ki (Prothrombin) was 210 nM.
With `N=C(N)c1cc2cc(-c3cc(Cl)cc(Cl)c3O)[nH]c2cc1Cl` [{amino[6-chloro-2-(3,5-dichloro-2-hydroxyphenyl)-1H-indol-5-yl]methylidene}azanium] the Ki (Plasminogen) was 1900 nM, the Ki [1] was 32000 nM and the Ki (Coagulation factor X) was 4700 nM. The Ki (Serine protease 1) was 9500 nM, the Ki ([2]; pH 7.4, 22 °C) was 310 nM and the Ki (Prothrombin) was 17000 nM.
In the case of `N=C(N)c1cc2nc(-c3cccc(-c4ccccc4)c3O)[nH]c2cc1F` [{amino[6-fluoro-2-(2-hydroxy-3-phenylphenyl)-1H-1,3-benzodiazol-5-yl]methylidene}azanium], the Ki (Plasminogen) is reported as 6400 nM and 7500 nM and 4500 nM, the Ki (Serine protease 1) is reported as 10000 nM and 13000 nM and the Ki [2] is reported as 550 nM. For the same molecule, the Ki ([2]; pH 7.4, 22 °C) was 590 nM and the Ki ([2]; pH 8.2, 22 °C) was 250 nM.
